Assay results as given in US20260132165A1, “MODIFIED NUCLEOSIDE ANALOGUE AND USE THEREOF, AND NUCLEOSIDE ANALOGUE-CONTAINING DOUBLE-STRANDED OLIGONUCLEOTIDE AND USE THEREOF” (RIGERNA THERAPEUTICS (BEIJING) CO., LTD., priority 2023, published 2026).

How the values were obtained:
target gene SOD1 [1] = experiment: Test Example 7: inhibitory activity of lipid conjugated siRNA sequences on SOD1 in mouse adipose and muscle tissues (tail vein injection); assay type: in vivo, C57BL/6j mice; conditions: tail vein injection 5 mg/kg
Protocol: (§1) RNA extraction: the above tissue samples were taken out from the RNAlater, and smashed for 60 s in Tissuelyser type II full-automatic tissue homogenizer, and total RNAs of various tissue samples were extracted using the full-automatic nucleic acid extraction instrument and the nucleic acid extraction kit from Zhejiang Hanwei Science and Technology Co. Ltd. according to methods described in instructions.
(§2) Reverse transcription reaction: 1 μg of the extracted total RNAs of the tissue samples were taken, and configured into 20 μL of reverse transcription system according to a method described in kit instructions by using a reverse transcription kit (Reverse Transcription System, A3500) from Promega Corporation and selecting Oligo (dT)15 reverse transcription primers, and the reverse transcription reaction was completed. After the reaction was ended, 80 μL of RNase-Free water was added into the reverse transcription system to provide cDNA solution for Real-time PCR detection.
(§3) Real-time PCR detection: 20 μL of Real-time PCR reaction system per PCR detection well was configured according to a method described in kit instructions using SYBR™ Select Master Mix (Catalog number: 4472908) reagent from ABI company. Each detection system contained 5 μL of cDNA template obtained from the above reverse transcription reaction, 10 μL of SYBR™ Select Master Mix, 0.5 μL of 10 μM upstream primers, 0.5 μL of 10 μM downstream primers, and 4 μL of RNase-Free H2O. The configured reaction system was subjected to Real-time PCR amplification on ABI StepOnePlus PCR instrument by a three-step method, wherein an amplification procedure was pre-denaturation at 95° C. for 10 min, then denaturation at 95° C. for 30 s, annealing at 60° C. for 30 s, and extension at 72° C. for 30 s; and processes of denaturation, annealing, and extension were repeated for 40 cycles. Gene expression differences were calculated by the ΔΔCt method after completion of the procedure.
In the real-time fluorescence quantitative PCR method, relative quantitative calculation of remaining expression level and inhibition rate of gene mRNA of interest in various test groups was performed by the ΔΔCt method, and the calculation method is as follows:
The present test example evaluated, by an evaluation method for inhibitory activity on a target gene in mice, the inhibitory activity of siRNA sequence RZ899090 with the sense strand with the NM073 conjugation at Position 4, siRNA sequence RZ899091 with the sense strand with the NM074 conjugation at Position 4, siRNA sequence RZ899078 with the sense strand with the NM202 conjugation at Position 6 and siRNA reference sequence RZ899093 with the sense strand with the Uhd conjugation at Position 4, and siRNA reference sequence RZ899076 with the sense strand with the NM200 conjugation at Position 4 on the target gene SOD1 of interest in mice. The above conjugation vectors were different in that NM073 was C18 aliphatic chain, NM074 was C20 aliphatic chain, and NM0202 and NM0200 were C22 aliphatic chains.
6-8 Week-old C57BL/6j mice were randomly grouped by body weight, 15 per group, 6 groups in total. Mice in each group were dosed with the above siRNA conjugates by tail vein injection, with an administration dose of 5 mg/kg per mouse, and an administration volume of 150 μL. PBS control group was administered with the same volume of siRNA conjugate-free PBS solution. The day of administration was recorded as D0, and 5 mice in each group were sacrificed on D14, D28 and D49 after administration. Tissues such as paragonadal fat, left hind leg quadriceps muscle, heart, liver, and kidney were respectively taken and stored in the RNAlater. RNA extraction, reverse transcription, and real-time fluorescence quantitative detection were performed on various tissues according to the above method, and gene expression differences were calculated by the above ΔΔCt method.

target gene SOD1 [2] = experiment: Test Example 4: lipid conjugated siRNA sequences with different carbon chain lengths, SOD1 in mouse brain, lateral ventricle administration; assay type: in vivo, C57BL/6j mice; design: Right hemisphere Mean value of inhibition rate / Left hemisphere Mean value of inhibition rate: unit not given here; conditions: lateral ventricle, 150 μg per mouse, D5
Protocol: 6-8 Week-old C57BL/6j mice were randomly grouped by body weight. Mice in each group were administered with siRNA by lateral ventricle administration, with an administration dose per mouse depending on a specific test. Taking Bregma in mouse brain as point 0 (origin), coordinates of right ventricle were found using the cerebral stereotaxic apparatus and position was marked on surface of skull (position of lateral ventricle was AP (anteroposterior, bregma anterior and posterior): −0.58 mm, ML (mediolateral, left and right of middle raphe): −1.2 mm, DV (dorsoventral, up and down cerebral dura mater plane): −2.2 mm). A dental electric drill was used to drill in the skull above a position of interest, and then medicament was injected into the lateral ventricle by a micro-dosing pump, wherein a total injection volume was 5 μL, and injection duration was 10 min. Needle was retained for 5 min after completion of injection, and then slowly withdrawn. Afterwards, needle hole was sealed with biomedical glue, and then head skin was adhered. After animals woke up, the animals were returned back to animal house and further fed. PBS control group was administered with the same volume of siRNA-free PBS solution. The day of administration was recorded as 0 day (D0), and the mice were sacrificed at observation point after the administration. Different parts of brain region were respectively taken and stored in the RNAlater.
as §1, §2, §3
In the real-time fluorescence quantitative PCR method, relative quantitative calculation of remaining expression level and inhibition rate of gene mRNA of interest in various test groups was performed by the ΔΔCt method, and the calculation method is as follows: […]

**Q.** Which results are given for “RZ899076: siRNA reference sequence with the sense strand with the NM200 (C22) conjugation at Position 4; SEQ ID NO: 18 / 24 (sense UUUNAAUCCUCACUCUAAA; antisense UUUAGAGUGAGGAUUAAAAUG; NM200 (C22) conjugate at sense position 4; modified_base 1..2 OTHER; 2'-methoxy and 5'-thiophosphate modified nucleotides; modified_base 3 OTHER; 2'-methoxy modified nucleotide; modified_base 4 OTHER; n is the synthetic nucleotide analog NM200 as described in the disclosure.; modified_base 5..6 OTHER; 2'-methoxy modified nucleotides; modified_base 7..10 OTHER; 2'-fluoro modified nucleotides; modified_base 11..19 OTHER; 2'-methoxy modified ; modified_base 1 OTHER; 2'-methoxy and 5'-thiovinylphosphonate modified nucleotide; modified_base 2 OTHER; 2'-fluoro and 5'-thiophosphate modified …) [reference compound]”?
**A.** D 14 % Mean value of inhibition rate (target gene SOD1 [1]; mouse adipose tissues (paragonadal fat), D14): 92.23%; D 28 % Mean value of inhibition rate (target gene SOD1 [1]; mouse adipose tissues (paragonadal fat), D28): 86.10%; D 49 % Mean value of inhibition rate (target gene SOD1 [1]; mouse adipose tissues (paragonadal fat), D49): 73.36%; D 14 % Mean value of inhibition rate (target gene SOD1 [1]; mouse heart tissues, D14): 70.04%; D 28 % Mean value of inhibition rate (target gene SOD1 [1]; mouse heart tissues, D28): 70.45%; D 49 % Mean value of inhibition rate (target gene SOD1 [1]; mouse heart tissues, D49): 37.03%; Kidney D 14 % Mean value of inhibition rate (target gene SOD1 [1]; mouse kidney, D14): 9.13%; Kidney D 28 % Mean value of inhibition rate (target gene SOD1 [1]; mouse kidney, D28): 9.82%; Kidney D 49 % Mean value of inhibition rate (target gene SOD1 [1]; mouse kidney, D49): 7.06%; Liver D 14 % Mean value of inhibition rate (target gene SOD1 [1]; mouse liver, D14): 51.15%; Liver D 28 % Mean value of inhibition rate (target gene SOD1 [1]; mouse liver, D28): 15.46%; Liver D 49 % Mean value of inhibition rate (target gene SOD1 [1]; mouse liver, D49): −13.46%; D 14 % Mean value of inhibition rate (target gene SOD1 [1]; mouse skeletal muscle tissues (left hind leg quadriceps muscle), D14): 82.53%; D 28 % Mean value of inhibition rate (target gene SOD1 [1]; mouse skeletal muscle tissues (left hind leg quadriceps muscle), D28): 81.97%; D 49 % Mean value of inhibition rate (target gene SOD1 [1]; mouse skeletal muscle tissues (left hind leg quadriceps muscle), D49): 66.88%; Left hemisphere Mean value of inhibition rate (target gene SOD1 [2]; left hemisphere (non-administration side)): 65.25; Right hemisphere Mean value of inhibition rate (target gene SOD1 [2]; right hemisphere (administration side)): 79.02
